Measurements as given in patent US6936631B2, “Bicyclic imidazo-5-yl-amine derivatives” (Gruenenthal GmbH, priority 1999, dated 2005).

These compounds were tested on α2-subtype of the human α-adrenergic receptor (assay: SPA assay for affinity for the α2-subtype of the human α-adrenergic receptor (high throughput screening)). Conditions: at a concentration of 10 μM.
Type: binding
Description: The compounds according to the invention are ligands of the pain-relevant α2-subtype of the human α-adrenergic receptor. The affinity for the α2-subtype of the human α-adrenergic receptor was determined by means of a conventional SPA assay for high throughput screening, such as is described in John P. Devlin, High Throughput Screening, Marcel Dekker Inc. 1997, page 307 to 316. This literature is incorporated herein by reference and thus forms part of the disclosure. The following affinities were determined at a concentration of 10 μM: […]

alpha2 affinity, 10 μM [%] | SMILES
51 | CC(=O)N(c1c(-c2ccc(C)cc2)nc2sccn12)C(C)(C)C [Example 52, N-tert-Butyl-N-(6-p-tolyl-imidazo[2,1-b]thiazol-5-yl)-acetamide]
36 | CCCCNc1c(-c2ccc(C(C)(C)C)cc2)nc2sc(C)cn12 [Example 42, Butyl-[6-(4-tert-butyl-phenyl)-2-methyl-imidazo[2,1-b]thiazol-5-yl]-amine]
42 | CC(C)(C)CC(C)(C)Nc1c(-c2ccccc2Br)nc2nc[nH]n12 [Example 47, [5-(2-Bromophenyl)-imidazo[1,2-b][1,2,4]triazol-6-yl]-(1,1,3,3-tetramethyl-butyl)-amine]
38 | CC(C)(C)Nc1c(-c2ccccc2F)nc2sccn12 [Example 44, tert-Butyl-[6-(2-fluorophenyl)-imidazo[2,1-b]thiazol-5-yl]-amine]
36 | CC(=O)Nc1ccc(-c2nc3nc[nH]n3c2NC2CCCCC2)cc1 [Example 48, N-[4-(6-Cyclohexylamino-imidazo[1,2-b][1,2,4]triazol-5-yl) -phenyl]-acetamide]
39 | Cc1ccc(C)c(-c2nc3sccn3c2NC2CCCCC2)c1 [Example 51, Cyclohexyl-[6-(2,5-dimethylphenyl)-imidazo[2,1-b]thiazol-5-yl]-amine]
34 | CC(C)(C)Nc1c(-c2ccccc2F)nc2nc[nH]n12 [Example 43, tert-Butyl-[5-(2-fluorophenyl)-imidazo[1,2-b][1,2,4]triazol-6-yl]-amine]
41 | CC(C)(C)Nc1c(-c2cccc3ccccc23)nc2nc[nH]n12 [Example 45, tert-Butyl-(5-naphthalen-1-yl-imidazo[1,2-b][1,2,4]triazol-6-yl)-amine]
46 | c1ccc2c(-c3nc4nc[nH]n4c3NC3CCCCC3)cccc2c1 [Example 46, Cyclohexyl-(5-naphthalen-1-yl-imidazo[1,2-b][1,2,4]triazol-6-yl)-amine]
38 | Cc1ccc(C)c(-c2nc3nc[nH]n3c2NC(C)(C)C)c1 [Example 49, tert-Butyl-[5-(2,5-dimethyl-phenyl)-imidazo[1,2-b][1,2,4]triazol-6-yl]-amine]
39 | CCCCN(C(C)=O)c1c(-c2c(F)cccc2Cl)nc2nc[nH]n12 [Example 55, N-Butyl-N-[5-(2-chloro-6-fluorophenyl)-imidazo[1,2-b][1,2,4]triazol-6-yl]-acetamide]
56 | Cc1ccc(C)c(-c2nc3nc[nH]n3c2NC(C)(C)CC(C)(C)C)c1 [Example 54, [5-(2,5-Dimethyl-phenyl)-imidazo [1,2-b][1,2,4]triazol-6-yl]-(1,1,3,3-tetramethyl-butyl) -amine]
36 | Cc1ccc(-c2nc3sccn3c2NC2CCCCC2)c(C)c1 [Example 50, Cyclohexyl-[6-(2,4-dimethyl-phenyl)-imidazo[2,1-b]thiazol-5-yl]-amine]
46 | CCCCN(C(C)=O)c1c(-c2ccc(C(C)(C)C)cc2)nc2sc(C)cn12 [Example 56, N-Butyl-N-[6-(4-tert-butyl-phenyl)-2-methyl-imidazo[2,1-b]thiazol-5-yl]-acetamide]
43 | Cc1ccc(-c2nc3nc[nH]n3c2NC(C)(C)CC(C)(C)C)c(C)c1 [Example 53, [5-(2,4-dimethyl-phenyl)-imidazo[1,2-b][1,2,4]triazol-6-yl]-(1,1,3,3-tetramethyl-butyl) -amine]
